What was measured:
Type in all cases: binding
[1] = biological target: T1, α7 nAChR (Homo sapiens, UniProt P36544); experiment: cell-based
[2] = biological target: T1, α7 nAChR
[3] = biological target: T1, α7 nAChR; remark: listed apart in the source

T1 sequence (P36544 23-502 limits assumed): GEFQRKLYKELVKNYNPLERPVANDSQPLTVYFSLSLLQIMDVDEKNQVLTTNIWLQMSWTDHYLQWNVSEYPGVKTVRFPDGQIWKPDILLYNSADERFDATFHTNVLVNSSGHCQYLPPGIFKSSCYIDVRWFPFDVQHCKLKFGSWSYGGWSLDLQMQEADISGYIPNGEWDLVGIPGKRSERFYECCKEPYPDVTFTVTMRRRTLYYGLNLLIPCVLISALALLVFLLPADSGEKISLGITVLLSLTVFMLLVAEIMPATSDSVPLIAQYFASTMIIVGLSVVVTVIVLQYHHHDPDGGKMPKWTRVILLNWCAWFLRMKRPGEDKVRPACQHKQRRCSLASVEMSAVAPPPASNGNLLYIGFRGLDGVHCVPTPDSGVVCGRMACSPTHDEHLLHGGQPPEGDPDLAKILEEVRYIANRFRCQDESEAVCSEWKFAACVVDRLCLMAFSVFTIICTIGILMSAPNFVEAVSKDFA

Substance: α-cobratoxin
- Hill coefficient, “replaceable” binding at the orthosteric site [1]: 1.0 ± 0.3
- radioligand [125I]-PnIA[R9, L10] not displaced [1]: ≈ 25%
- IC50 ([1]; read-out: IC50 of [125I]-PnIA[R9, L10] binding inhibition, “replaceable” binding at the orthosteric site): 11 ± 3 nM
- inhibition of [125I]-PnIA[R5, R9, L10, R14] binding (in words) [2]: failed to achieve a 50% inhibition
- removal of [125I]-PnIA[R9, L10] from α7 nAChR (in words) [3]: could not completely remove the radioligand from the target even after a 2-hour incubation

— PMC5107951 (Scientific Reports, 2016)
